In paper PMC12313019, “Fibrotic lung ECM upregulates SDC4/integrin-αvβ1 interaction and the interfering peptide SDC4_87-131 and its derivative peptides alleviate pulmonary fibrosis” (Regenerative Biomaterials, 2025):

Legend:
integrin-αvβ1 = integrin-αvβ1 (Homo sapiens, UniProt P05556+P06756); assay: SPR binding of peptides to integrin-αvβ1 (Biacore 8K+); conditions: 25°C, Figure 7E
Experimental: The Biacore 8K+ system (GE Healthcare) was used at 25°C. The ligand integrin-αvβ1 (1 mg/mL) was routinely coupled to the sensor chip (Series S Sensor Chip CM5, Cytiva, #100530). The peptide samples SDC4_87-131 and CS-1, -2, -3, -4, -8, -9, -10 were dissolved in PBS, and then, the samples with different concentration gradients (0.78, 1.56, 3.125, 6.25, 12.5, 25, 50, 100 μM) were injected, respectively, under the driving of buffer PBST (PBS + 0.05% Tween-20). The signal intensity was quantified in relative units (RU), and binding affinity was determined using the dissociation constant (Kd). After the experiment, 10 mM glycine-HCl buffer solution (pH = 2) was selected to regenerate the chip surface.

fibroblast = assay: CCK-8 fibroblast viability/toxicity; assay type: cell-based, mouse; conditions: CCK-8, 48 h, 10–1000 nM
Experimental: (§1) Decellularized lung ECM (dECM) was prepared as described in previous study. 2 × 10^5 cells/mL NIH3T3 cells (mouse […], purchased from the Stem Cell Bank of the Chinese Academy of Sciences, Shanghai, China) were seeded on the dECM slices attached to the bottom of the culture dish and cultured in DMEM medium containing 0.5% fetal bovine serum (Gibco, Waltham, MA, USA) at 37°C and 5% CO2.
(A) Schematic diagram of SDC487-131; (B) Effect of SDC487-131 and GRGDNP on fibroblast proliferation at 48 h was determined by CCK-8 method (n=3); (C) Effect of different concentration of SDC487-131 on fibroblast activation induced by d-PF for 48 h (n=5). Note: **p < 0.01 vs. PBS in d-Nor group; #p < 0.05 vs. PBS in d-PF group. d-Nor: dECM-Nor; d-PF: dECM-PF.
Figure S14. The viability of fibroblast after treated with peptides for 48 h was detected by CCK-8 assay.

NIH3T3 cells = assay: RT-PCR of fibroblast activation markers, TGF-β1 and inflammatory factors in dECM-stimulated fibroblast; assay type: cell-based, mouse
Experimental: as §1
Total RNA was extracted from cells or lung tissue (10 mg) using Trizol reagent, and mRNA was reverse transcribed into cDNA using HiScript® II QRT SuperMix for qPCR (Vazyme, #R223-01). Real-time fluorescence quantitative PCR (RT-PCR) was performed using Hieff® qPCR SYB Green Master Mix (YEASEN, #11201ES08) to obtain the Ct value. The 2^−ΔΔCt method was used to obtain the relative expression level of mRNA in each group. Primers (Table 1) were purchased from Sangon Biotech.

integrin-β1 = assay: Flow cytometry of integrin-β1 activation (9EG7) in fibroblast; assay type: cell-based, mouse; conditions: SDC4_87-131 100 nM, C8 20 nM, 48 h
Experimental: as §1
The single cell suspension of mouse lung tissue was obtained by grinding. After the remaining red blood cells were lysed with ACK Lysis Buffer (TBD, NH4CL2009), 1×10^6 cells/100 μL of cells were added with Fixable Viability Stain 780 (BD, #565388). After incubation at room temperature in the dark for 10-15 min, the suspension was washed twice with PBS containing 1%-2% FBS. The FCR antibody TruStain FcX™ PLUS (BD, #156603) was added to the cell suspension at a ratio of 0.25 μL:100 μL and blocked on ice for 10 min. Then, the antibody was incubated at an appropriate concentration and time according to the manufacturer's instructions. Antibodies include CD45 (Biolegend, #157619), CD140a (Thermo Fisher, #25-1401-82), SDC-4 (Sino Biological, #50726-R112-P), SP-C (Bioss, #bs-10067R-FITC) and Integrin-β1 (9Eg7, BD, 553715), and AF647 anti-Rat (CST, #4418S) was used as the secondary antibody. After incubation, cells were washed and resuspended, and detected using LSRFortessaX-20 (BD).

SDC4/integrin-αv = assay: Duolink-PLA, SDC4/integrin-αv extracellular interaction in fibroblast; assay type: cell-based, mouse; conditions: SDC4_87-131 100 nM; with Anti-SDC4(93-121), n=5
Experimental: as §1
Cells or tissue slices were attached to slides, fixed and permeabilized and blocked with Duolink^TM (Merck, MO, USA) blocking buffer. Antibodies against the extracellular domain of SDC4 (5G9, mouse IgG, SCBT #sc-12766), integrin-αv (rabbit IgG, CST #4711) and integrin-β1 (rabbit IgG, CST #34971) were diluted and added to the samples and incubated overnight at 4°C. After washing, PLUS and MINUS (proximity ligation assay, PLA) probes were added to the samples and incubated at 37°C for 1 h. After washing, the samples were sequentially incubated with PLUS and MINUS (PLA) probes, ligation buffer and amplification buffer containing polymerase. Finally, the samples were mounted with in situ mounting medium containing DAPI. Images were acquired using a Leica SP5 confocal microscope (Leica Biosystems, Germany) and quantitative analysis was performed using ImageJ software.

[1] = system: integrin-αvβ1, FAK/AKT, Smad2/3 and PKCα/NF-κB in BLM lung tissue; assay: BLM-induced PF in mice: Western blot of lung tissue; assay type: in vivo, mouse; conditions: n=3
Experimental: After the mice were anesthetized (1% sodium pentobarbital 50 mg/kg was injected intraperitoneally), 150 μL of bleomycin (BLM, 5 mg/mL, BIO-000001) was inhaled into the lungs of the mice by tracheal inhalation instillation. One day later, the mice were randomly divided into model and drug treatment groups, and the mice in the control group were only subjected to saline inhalation.
20 mg of lung tissue was extracted with RIPA lysis buffer (Roche International Ltd., Bermuda, USA), and the protein concentration was determined using a BCA protein detection kit (Roche). Protein samples were separated by 10% sodium dodecyl sulfate polyacrylamide gel (SDS-PAGE) electrophoresis and transferred to a PVDF membrane. After blocking, the PVDF membrane was incubated with primary antibodies for α-SMA, Integrin-αV, SDC4, Integrin-β1, p-Smad3, FAK, and p-FAK (CST, #19245, #4711, #12236S, #34971, #9520S, #3285S, and #3284S) at 4°C overnight, followed by incubation with secondary antibodies (CST, #7074P2), development with ECL reagent (SAB), and acquisition of images with a chemiluminescence imaging system (ChemiScope 5600).

integrin-αvβ1, sequence (P06756 31-992 limits assumed): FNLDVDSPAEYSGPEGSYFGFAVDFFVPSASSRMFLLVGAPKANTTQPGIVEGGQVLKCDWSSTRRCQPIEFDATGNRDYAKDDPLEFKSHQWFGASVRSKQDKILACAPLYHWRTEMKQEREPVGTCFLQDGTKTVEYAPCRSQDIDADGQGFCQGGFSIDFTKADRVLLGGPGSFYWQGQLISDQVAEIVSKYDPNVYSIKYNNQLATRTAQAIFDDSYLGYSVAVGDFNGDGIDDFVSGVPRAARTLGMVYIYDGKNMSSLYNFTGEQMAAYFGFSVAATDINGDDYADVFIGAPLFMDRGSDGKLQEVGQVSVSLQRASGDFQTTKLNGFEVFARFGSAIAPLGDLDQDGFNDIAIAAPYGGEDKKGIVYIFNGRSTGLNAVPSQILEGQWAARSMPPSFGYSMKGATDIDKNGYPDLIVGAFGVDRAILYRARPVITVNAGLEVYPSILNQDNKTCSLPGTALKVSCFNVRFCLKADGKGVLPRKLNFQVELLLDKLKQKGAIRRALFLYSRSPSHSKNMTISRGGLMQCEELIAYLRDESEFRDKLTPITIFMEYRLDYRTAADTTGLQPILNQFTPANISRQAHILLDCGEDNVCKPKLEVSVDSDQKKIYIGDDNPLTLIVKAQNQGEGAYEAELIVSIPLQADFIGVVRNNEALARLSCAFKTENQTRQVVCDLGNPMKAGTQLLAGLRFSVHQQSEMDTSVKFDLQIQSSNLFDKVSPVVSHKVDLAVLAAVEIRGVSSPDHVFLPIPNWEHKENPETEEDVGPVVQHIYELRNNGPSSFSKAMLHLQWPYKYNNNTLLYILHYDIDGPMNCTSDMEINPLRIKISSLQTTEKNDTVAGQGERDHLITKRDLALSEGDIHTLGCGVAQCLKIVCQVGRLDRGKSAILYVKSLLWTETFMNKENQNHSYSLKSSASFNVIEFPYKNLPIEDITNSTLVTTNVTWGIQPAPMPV
integrin-αvβ1, sequence (P05556 21-728 partner limits assumed): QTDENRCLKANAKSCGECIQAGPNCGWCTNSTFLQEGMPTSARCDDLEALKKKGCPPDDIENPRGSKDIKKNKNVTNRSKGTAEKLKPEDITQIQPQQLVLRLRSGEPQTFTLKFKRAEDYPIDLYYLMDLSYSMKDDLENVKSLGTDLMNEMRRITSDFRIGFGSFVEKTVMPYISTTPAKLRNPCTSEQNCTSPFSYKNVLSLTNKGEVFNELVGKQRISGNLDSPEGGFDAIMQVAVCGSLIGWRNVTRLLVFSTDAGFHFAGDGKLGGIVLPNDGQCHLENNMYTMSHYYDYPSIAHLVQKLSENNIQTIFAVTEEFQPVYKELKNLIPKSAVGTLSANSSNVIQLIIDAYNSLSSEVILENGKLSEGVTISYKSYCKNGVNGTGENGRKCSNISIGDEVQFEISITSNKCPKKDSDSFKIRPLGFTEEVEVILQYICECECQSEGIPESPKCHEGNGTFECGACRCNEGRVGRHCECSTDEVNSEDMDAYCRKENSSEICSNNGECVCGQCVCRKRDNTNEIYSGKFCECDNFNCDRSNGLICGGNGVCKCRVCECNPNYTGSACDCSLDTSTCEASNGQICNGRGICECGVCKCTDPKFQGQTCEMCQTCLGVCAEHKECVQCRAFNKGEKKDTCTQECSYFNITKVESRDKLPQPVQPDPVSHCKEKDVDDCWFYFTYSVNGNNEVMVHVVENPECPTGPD

Ac-NHIPERAGSGSQVPTEPKKLEENEVIPKRISPVEESEDVSNKVSM-NH2 [SDC4_87-131]
affinity (in words) (integrin-αvβ1): nM level | toxicity to fibroblast (fibroblast): no significant toxicity to fibroblast | dECM-PF-induced fibroblast activation (NIH3T3 cells; 100 nM, 48 h): significantly inhibit dECM-PF-induced fibroblast activation | dECM-PF-induced fibroblast activation and TGF-β1 synthesis (NIH3T3 cells; SDC4_87-131 100 nM vs Anti-SDC4(93-121) 100 ng/mL): inhibited dECM-PF-induced fibroblast activation and TGF-β1 synthesis | dECM-PF-induced integrin-β1 activation (integrin-β1): significantly inhibited dECM-PF-induced integrin-β1 activation | integrin-αv/SDC4 interaction induced by dECM-PF (SDC4/integrin-αv): significantly reduce | expression level of integrin-αv ([1]; 1 mg/kg ITD q3d): significantly reduced the expression level of integrin-αv | phosphorylation level of PKCα and nuclear content of NF-κB (p65) ([1]; SDC4_87-131 1 mg/kg, C8 10 mg/kg, Anti-SDC4(93-121) 8 mg/kg): could downregulate | FAK/AKT phosphorylation [1]: inhibit FAK/AKT phosphorylation activation in both in vitro and in vivo experiments | p-Smad2/3 effect vs C8 and Anti-SDC4 [1]: not significantly different from C8 and Anti-SDC4 | p-Smad2/3 protein levels [1]: reduced p-Smad2/3 protein levels
